Experimental data published in the supplement of paper PMC10307832.

What was measured:
Experiment in all cases: relative viability (nuclei count vs DMSO), 5 days (fraction); higher = more cells survive
[1] = compound: O=C(CCCCCCNC(=O)c1cnc(N(c2ccccc2)c2ccccc2)nc1)NO [Ricolinostat] + C[C@@H](Oc1cc(-c2cnn(C3CCNCC3)c2)cnc1N)c1c(Cl)ccc(F)c1Cl [Crizotinib] (partner 1 µM)
In short: (§1)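 Lung cancer cell lines in 1536-well plates were dosed by pin tool the day after seeding, either with one drug alone or with a fixed anchor-drug dose plus five library-drug doses (not always all listed) in √10 steps. After 5 days, cells were fixed and their nuclei stained in one step (final 0.05% Triton X-100, 1% formaldehyde, 1 ug/ml Hoechst), then counted on 4× images. Relative viability is the nuclei count in treated wells divided by that in vehicle wells. Values are medians of duplicate plates.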

TGX 221 + Olaparib = compound: CC1=CN2C(=O)C=C(N=C2C(=C1)C(C)NC3=CC=CC=C3)N4CCOCC4 [TGX 221] + O=C(c1cc(Cc2n[nH]c(=O)c3ccccc23)ccc1F)N1CCN(C(=O)C2CC2)CC1 [Olaparib] (partner 8 µM)
In short: as §1

[2] = compound: C1=CC=C(C(=C1)C2=CC=C(C=C2)C3=CSC4=C3C(=C(C(=O)N4)C#N)O)O + CS(=O)(=O)N1CCN(Cc2cc3nc(-c4cccc5[nH]ncc45)nc(N4CCOCC4)c3s2)CC1 [Pictilisib] (partner 1 µM)
In short: as §1

TGX 221 + Phenformin = compound: CC1=CN2C(=O)C=C(N=C2C(=C1)C(C)NC3=CC=CC=C3)N4CCOCC4 [TGX 221] + N=C(N)NC(=N)NCCc1ccccc1 [Phenformin] (partner 250 µM)
In short: as §1

Cell Line	relative viability ([1]; first compound 0.08 µM)	relative viability ([1]; first compound 0.253 µM)	relative viability ([1]; first compound 2.53 µM)	relative viability (TGX 221 + Olaparib; first compound 0.08 µM)	relative viability (TGX 221 + Olaparib; first compound 0.253 µM)	relative viability (TGX 221 + Olaparib; first compound 0.8 µM)	relative viability (TGX 221 + Olaparib; first compound 2.53 µM)	relative viability (TGX 221 + Olaparib; first compound 8 µM)	relative viability ([2]; first compound 0.08 µM)	relative viability ([2]; first compound 0.253 µM)	relative viability ([2]; first compound 0.8 µM)	relative viability ([2]; first compound 2.53 µM)	relative viability ([2]; first compound 8 µM)	relative viability (TGX 221 + Phenformin; first compound 0.08 µM)	relative viability (TGX 221 + Phenformin; first compound 0.253 µM)	relative viability (TGX 221 + Phenformin; first compound 0.8 µM)	relative viability (TGX 221 + Phenformin; first compound 2.53 µM)	relative viability (TGX 221 + Phenformin; first compound 8 µM)	relative viability ([1]; first compound 0.8 µM)
NCI-H1975	1.01	0.954	0.884	0.757	0.747	0.802	0.679	0.659	0.272	0.308	0.231	0.271	0.264	0.395	0.402	0.389	0.399	0.366	
NCI-H2347	0.618	0.675	0.581	0.592	0.563	0.521	0.528	0.457	0.624	0.609	0.496	0.626	0.454	0.427	0.385	0.389	0.234	0.213	0.673
RERF-LC-KJ	0.784	0.754	0.65	0.834	0.756	0.996	0.844	0.874	0.576	0.538	0.567	0.466	0.493	0.439	0.434	0.398	0.377	0.326	0.819
BEN	0.745	0.789	0.68	1.16	0.887	1.05	0.882	1.01	0.547	0.597	0.437	0.547	0.428	0.24	0.257	0.273	0.27	0.265	0.903
NCI-H358	0.581	0.453	0.31	0.626	0.565	0.705	0.545	0.582	0.415	0.344	0.329	0.342	0.414	0.355	0.31	0.296	0.382	0.324	0.421
NCI-H1944	1.02	0.95	0.58		0.364	0.409	0.371	0.379	0.349	0.39	0.317	0.343	0.357	0.188	0.196	0.191	0.186	0.184	0.878
201T	0.926	1.04	1.07	0.837	0.834	0.821	0.834	0.777	0.646	0.697	0.652	0.584	0.846	0.459	0.436	0.428	0.434	0.439	1.08
NCI-H647	1.08	1.05	0.661	0.443	0.385	0.553	0.403	0.447	0.226	0.449	0.515	0.377	0.389	0.457	0.414	0.405	0.427	0.457	1.01
NCI-H441	0.587	0.625	0.633	0.578	0.571	0.515	0.524	0.589	0.437	0.596	0.593	0.546	0.452	0.791	0.911	0.79	0.785	1.09	0.615
PC-3 [JPC-3]	1.01	0.902	0.829	1.12	1.02	1.25	1.06	1.07	0.69	0.888	0.665	0.685	0.652	0.463	0.459	0.469	0.47	0.477	0.963
NCI-H2126	0.862	0.945	1.01	0.927	0.885	0.886	0.813	0.871	0.455	0.498	0.478	0.515	0.503	0.483	0.487	0.535	0.515	0.507	1.06
HCC-15	0.775	0.801	0.84	0.641	0.728	0.756	0.704	0.719	0.777	0.767	0.734	0.74	0.777	0.482	0.471	0.483	0.451	0.497	0.799
NCI-H2085		0.81	0.848	0.802	0.75	0.684	0.536	0.439	0.414	0.517	0.528	0.418	0.399	0.817	0.562	0.588	0.462	0.425	0.819
LOU-NH91		0.738	0.783	0.95	0.904	0.892	0.951	0.783	0.482	0.538	0.51	0.515	0.512	0.679	0.74	0.692	0.784	0.674	0.734
A549	0.757	0.714	0.291	0.375	0.318	0.0939	0.301	0.422	0.322	0.552	0.539	0.516	0.422	0.198	0.138	0.185	0.209	0.152	0.581
NCI-H3122	0.219	0.307	0.336	0.596	0.625	0.596	0.562	0.643	0.6	0.666	0.676	0.682	0.662	0.366	0.386	0.396	0.363	0.366	0.326
HOP-62	0.912	0.855	0.87	0.408	0.435	0.536	0.707	0.585	0.774	0.773	0.673	0.837	0.434	0.641	0.639	0.728	0.714	0.777	0.924
